Tests used:
[1] = cited from earlier work
[2] = whole-body creatine retention from 24-hour urine, double-blind randomized crossover study; conditions: 2 x 5 g oral, 8 hours apart (total 10 grams), fifteen females and males
Experimental: Participants adhered to a plant-based protein diet prior to each testing session. […] Participants were then randomly assigned to ingest capsules containing 5 g of CrM or 5 g of CrM prepared in beadlets (CrM-Bead). […] Participants repeated the experiment after a seven-day washout while ingesting the crossover supplement, i.e. the CrM-Bead group was given CrM and the CrM group was given Crm-Beads. Whole-body creatine retention was determined by subtracting CrM intake from the difference between post-supplementation urine creatine content and expressed in percent retention.

## CN(CC(=O)O)C(=N)N.O [CrM, creatine monohydrate]
[1]
  time to return to baseline in the blood after oral ingestion: 4 to 5 h
[2]
  24-hour whole-body creatine retention: 81.8%±11.4%

Source: patent US20250082577A1, “POLYMER BEADLET COMPOSITIONS AND METHODS OF USE THEREOF FOR IMPROVED STABILITY, BIOAVAILABILITY & SUSTAINED RELEASE” (SpecNova LLC, priority 2023, published 2025)
